Results published in patent publication US12202826B2, “N-pyridinyl acetamide derivatives as inhibitors of the Wnt signaling pathway” (Redx Pharma PLC, priority 2014, dated 2025).

How the values were obtained:
[1] = Dual-Cell β-Catenin Reporter Assay; type: cell-based, Mouse; settings: Mus musculus, luciferase signal reduced to 50% of DMSO control
Method: (§1) Dual-Cell β-Catenin Reporter Assay
(§2) Mouse L cells transfected to constitutively produce biologically active murine Wnt-3a, referred to as L-Wnt cells, were purchased from the American Type Culture Collection, ATCC, Manassas, VA (ATCC). These cells were cultured in DMEM supplemented with 10% FCS (Gibco/Invitrogen, Carlsbad, CA), 1% geneticin and 1% sodium pyruvate (Sigma) at 37° C. with 5% CO2. The cells were seeded into 96 well plates and treated with serial dilutions of compound diluted to 0.1% DMSO concentration. After 24 hours, cell supernatants were transferred to a 96 well plate previously seeded with Leading Light® Wnt Reporter Cells, stably transfected with a luciferase gene under control of Wnt pathway response elements. After a further 24 hours, cells are treated with One-glo luciferase assay system (Promega, Madison, WI) and the luminescent signal read by envision. The IC50 of the compound is determined as the concentration that reduces the induced luciferase signal to 50% of the DMSO control.
(§3) The category “+” refers to compounds with an IC50 of >100 μM. The category “++” refers to compounds with an IC50 of 5 to 100 μM. The category “+++” refers to compounds with an IC50<5 μM.

[2] = system: L-Wnt cells (murine Wnt-3a) / Leading Light Wnt Reporter Cells (luciferase under control of Wnt pathway response elements); test: Dual-Cell β-Catenin Reporter Assay; type: cell-based, Mouse; settings: category of IC50; luciferase signal reduced to 50% of DMSO control
Method: as §1, §2, §3

| Compound | IC50 ([1]; category of IC50) | IC50 [1] | IC50 [2] |
| --- | --- | --- | --- |
| Cc1cc(-c2cnn(CC(=O)Nc3ccc(-c4cnccn4)cn3)c2)ccn1 [compound 3] | 5 to 100 nM | 12.2 nM | – |
| CC(C)(C)OC(=O)N1CCN(c2ccc(NC(=O)Cn3cnc(-c4ccnc(C(F)(F)F)c4)c3)nc2)CC1 [compound 6] | < 5 nM | 0.91 nM | – |
| Cc1c(-c2ccnc(C(F)(F)F)c2)ncn1CC(=O)Nc1ccc(-c2cnccn2)cn1 [compound 74] | < 5 nM | 0.05 nM | – |
| Cc1c(-c2ccnc(C(F)(F)F)c2)ncn1CC(=O)Nc1ccc(-c2ccc(C#N)cc2)cn1 [compound 107] | < 5 nM | 0.05 nM | – |
| Cc1cc(-c2nn(CC(=O)Nc3ccc(-c4cnccn4)cn3)cc2C)ccn1 [compound 75] | < 5 nM | 0.61 nM | – |
| Cc1nn(CC(=O)Nc2ccc(-c3ccc(C#N)cc3)cn2)c(C)c1-c1ccnc(C(F)(F)F)c1 [compound 54] | < 5 nM | 0.14 nM | – |
| COc1ccc(-c2ccc(NC(=O)Cn3cc(-c4ccnc(C(F)(F)F)c4)c(C)n3)nc2)cn1 [compound 98] | – | – | 5 to 100 nM |
| Cc1cc(-c2nc(C)n(CC(=O)Nc3ccc(-c4cnccn4)cn3)c2C)ccn1 [compound 86] | – | – | < 5 nM |
| Cc1nn(CC(=O)Nc2ccc(-c3cnccn3)cn2)c(C)c1-c1ccnn1C [compound 50] | – | – | 5 to 100 nM |
| Cc1nn(CC(=O)Nc2ccc(-c3cncnc3)cn2)c(C)c1-c1ccc(N(C)C)nc1 [compound 102] | – | – | 5 to 100 nM |
| Cc1nn(CC(=O)Nc2ccc(-c3cnccn3)cn2)c(C)c1-c1cnn(C2CC2)c1 [compound 58] | – | – | 5 to 100 nM |
| Cc1cc(-c2ncn(CC(=O)Nc3ccc(-c4cnccn4)cn3)c2C)ccn1 [compound 87] | – | – | < 5 nM |
| Cc1nn(CC(=O)Nc2ccc(-c3cnccn3)cn2)c(C)c1-c1cc(Cl)ncn1 [compound 57] | – | – | 5 to 100 nM |
| Cc1noc(C)c1-c1cnn(CC(=O)Nc2ccc(-c3cnccn3)cn2)c1 [compound 36] | – | – | 5 to 100 nM |
| Cc1nc(-c2ccnc(C(F)(F)F)c2)c(C)n1CC(=O)Nc1ccc(-c2cnccn2)cn1 [compound 72] | – | – | < 5 nM |
| O=C(Cn1cc(-c2ccncn2)cn1)Nc1ccc(-c2cnccn2)cn1 [compound 30] | – | – | > 100 nM |
| Cc1nn(CC(=O)Nc2ccc(-c3cncnc3)cn2)c(C)c1C1CC(C)OC(C)C1 (stereo not shown) [compound 96] | – | – | 5 to 100 nM |
| Cc1nn(CC(=O)Nc2ccc(-c3ccnn3C)cn2)c(C)c1-c1ccnc(C(F)(F)F)c1 [compound 55] | – | – | < 5 nM |
| Cc1nn(CC(=O)Nc2ncc(-c3cnccn3)cc2C#N)c(C)c1-c1ccnc(C(F)(F)F)c1 [compound 80] | – | – | 5 to 100 nM |
| Cc1nn(CC(=O)Nc2ccc(-c3cnccn3)cn2)c(C)c1-c1ccnc(N(C)C)c1 [compound 100] | – | – | 5 to 100 nM |
| Cc1ncc(-c2cnn(CC(=O)Nc3ccc(-c4cnccn4)cn3)c2)s1 [compound 29] | – | – | > 100 nM |
| Cc1nn(CC(=O)Nc2ccc(-c3cnccn3)cn2)c(C)c1-c1ccnc(F)c1 [compound 61] | – | – | < 5 nM |
